Assays:
[1] = test system: acetylated histone H3 in A549 lung adenocarcinoma cells; assay: Acetylated histone H3 in-cell western (ICW) assay; format: cell-based; details: Homo sapiens, 16 h exposure, relative to 40 μM Trichostatin A positive control, read-out: EC50 Ac-histone H3, A549 cells
Description: (§1) Acetylated α-Tubulin and Histone H3 in-Cell Western (ICW) Assays
(§2) A549 cells were maintained in DMEM (Life Technologies)+10% FBS+2 mM glutamine & penicillin (10 μg/mL) and streptomycin ([…]. 10,000 A549 cells per well were plated into 96 well tissue culture plates (Corning) and incubated at 37° C. overnight in a humidified atmosphere containing 5% CO2 prior to addition of compounds. Compounds (dissolved in 100% DMSO) were diluted into cell culture media at 2× final assay concentration. 2× compound or DMSO (negative control) were added to cells (final DMSO concentration 0.4%). Untreated control wells received media. For acetylated α-tubulin assays, 40 μM scriptaid was used as a positive control. For acetylated histone H3 assays, 40 μM Trichostatin A (TSA) was used as a positive control. Cells were exposed to compound at 37° C. in a humidified atmosphere containing 5% CO2 for 16 h.
(§3) Measurement of the impact of compounds on levels of acetylated α-tubulin and histone H3 was performed using specific antibodies and near-infrared immunofluorescent dyes. Briefly, media was removed from wells of assay plates. Cells were washed once with PBS and fixed in 3.7% formaldehyde PBS solution at room temperature for 20 min. Cells were then permeabilised by washing 5 times in 0.1% triton-X-100 PBS at room temperature with gentle agitation for 5 min per wash. Non-specific antibody staining was blocked by the addition of Odyssey blocking buffer (Li-Cor) for 1.5 h at room temperature with gentle agitation. Cells were then incubated with primary antibody (mouse monoclonal anti-acetylated α-tubulin (clone 6-11B-1), Sigma or rabbit polyclonal anti-acetylated histone H3, Millipore) diluted in Odyssey blocking buffer at 4° C. with gentle shaking overnight (no antibody control and secondary antibody only wells were incubated with Odyssey blocking buffer only). Cells were washed five times with 0.1% tween PBS and labelled with secondary antibody (IR dye 800CW-conjugated goat anti mouse IgG or -goat anti rabbit IgG, Li-Cor) and cell stains Sapphire700 (Li-Cor) and Draq5 (Biostatus) diluted in Odyssey blocking buffer at room temperature in the dark with gentle shaking for 1 h (no antibody control wells were incubated with Odyssey blocking buffer only and secondary antibody only with diluted secondary antibody but no cell stains). Cells were washed with 0.1% Tween PBS five times and scanned using a Li-Cor Odyssey SA plate reader in 700 and 800 nm channels. Acetylated α-tubulin or histone H3 signal was normalised to cell number using the cell stain signal. Percentage increase in acetylated α-tubulin or histone H3 after compound treatment over the mean of DMSO treated controls, relative to scriptaid and TSA positive controls, respectively was calculated. EC50 values were calculated using GraphPad Prism software and nonlinear regression with 0% bottom and 100% top constraints.

Human HDAC9 = molecular target: T1, Human HDAC9 (Homo sapiens, UniProt Q9UKV0); assay: HDAC9 biochemical assay, class IIa-specific substrate; details: read-out: HDAC Isoform IC50 (nM) 9
T1 construct: amino acids 604-1066 with C-terminal His tag; His (C); host or cells: baculovirus expression system
Summary of the method: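 HDAC9 residues 604-1066 (C-terminal His tag, baculovirus-expressed) at 0.06 ng/ul with 50 μM class IIa substrate Boc-Lys(trifluoroacetyl)-AMC in Tris-HCl pH 8.0 buffer with BSA and 1% DMSO. 30 min at room temperature, then developer added; fluorescence read at 360/460 nm Ex/Em.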

[2] = test system: acetylated α-tubulin in A549 lung adenocarcinoma cells; assay: Acetylated α-tubulin in-cell western (ICW) assay; format: cell-based; details: Homo sapiens, 16 h exposure, relative to 40 μM scriptaid positive control, read-out: EC50 Ac-α-tubulin, A549 cells
Description: as §1, §2, §3

Human HDAC7 = molecular target: T2, Human HDAC7 (Homo sapiens, UniProt Q8WUI4); assay: HDAC7 biochemical assay, class IIa-specific substrate; details: read-out: HDAC Isoform IC50 (nM) 7
T2 construct: (a.a. 518-end) with N-terminal GST tag; GST (N); host or cells: baculovirus expression system
T2 sequence (Q8WUI4 518-952 limits assumed): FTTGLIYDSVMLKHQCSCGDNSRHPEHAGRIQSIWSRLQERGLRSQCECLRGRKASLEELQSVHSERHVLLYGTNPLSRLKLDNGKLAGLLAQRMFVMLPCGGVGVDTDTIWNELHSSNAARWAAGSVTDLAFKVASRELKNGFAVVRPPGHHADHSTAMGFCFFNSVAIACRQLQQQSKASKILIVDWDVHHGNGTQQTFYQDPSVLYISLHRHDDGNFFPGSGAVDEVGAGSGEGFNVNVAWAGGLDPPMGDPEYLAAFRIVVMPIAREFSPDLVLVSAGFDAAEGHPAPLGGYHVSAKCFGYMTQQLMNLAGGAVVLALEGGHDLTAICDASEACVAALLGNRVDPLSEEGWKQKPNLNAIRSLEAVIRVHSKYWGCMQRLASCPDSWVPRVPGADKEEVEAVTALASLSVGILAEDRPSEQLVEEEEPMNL
Summary of the method: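 Two-step fluorogenic readout: class IIa-selective trifluoroacetyl-lysine AMC substrate (50 μM) deacetylated by N-terminal GST-HDAC7 fragment (0.001 ng/ul), then digested by developer, Ex/Em 360/460. Reaction: 30 min, room temperature, Tris-HCl pH 8.0, NaCl/KCl/MgCl2, 1 mg/mL BSA, 1% DMSO.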

T1 sequence (Q9UKV0 604-1066 isoform Q9UKV0-5): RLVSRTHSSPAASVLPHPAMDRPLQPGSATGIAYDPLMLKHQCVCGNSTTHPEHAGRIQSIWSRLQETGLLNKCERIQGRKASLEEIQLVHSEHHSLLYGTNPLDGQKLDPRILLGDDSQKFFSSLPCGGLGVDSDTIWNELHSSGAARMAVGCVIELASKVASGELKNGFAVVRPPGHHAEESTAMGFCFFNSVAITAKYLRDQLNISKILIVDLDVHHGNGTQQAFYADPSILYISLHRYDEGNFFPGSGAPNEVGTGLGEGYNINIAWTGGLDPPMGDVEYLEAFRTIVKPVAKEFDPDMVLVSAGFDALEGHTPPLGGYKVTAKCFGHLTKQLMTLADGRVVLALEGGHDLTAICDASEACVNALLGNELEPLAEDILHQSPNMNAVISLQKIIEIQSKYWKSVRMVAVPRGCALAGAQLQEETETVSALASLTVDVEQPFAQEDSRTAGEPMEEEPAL

CNC(=O)c1ccc(N(Cc2ccc(-c3noc(C(F)(F)F)n3)s2)c2cnccn2)nn1 [Example FC, N-Methyl-6-[(pyrazin-2-yl)({5-[5-(trifluoromethyl)-1,2,4-oxadiazol-3-yl]thiophen-2-yl}methyl)amino]pyridazine-3-carboxamide]
EC50 [1]: ≥ 10 µM | IC50 (Human HDAC9): ≤ 10000 nM | EC50 [2]: ≤ 1 µM | IC50 (Human HDAC7): ≤ 500 nM

COC1(C(F)(F)F)CN(C(=O)c2cnnc(N(Cc3ccc(-c4noc(C(F)(F)F)n4)s3)c3cnccn3)c2)C1 [Example GL, 5-[3-Methoxy-3-(trifluoromethyl)azetidine-1-carbonyl]-N-(pyrazin-2-yl)-N-({5-[5-(trifluoromethyl)-1,2,4-oxadiazol-3-yl]thiophen-2-yl}methyl)pyridazin-3-amine]
EC50 [1]: ≥ 10 µM | IC50 (Human HDAC9): ≤ 10000 nM | EC50 [2]: ≤ 1 µM | IC50 (Human HDAC7): ≤ 10000 nM

O=C(c1cnnc(N(Cc2ccc(-c3noc(C(F)(F)F)n3)s2)c2cnccn2)c1)N1CC[S+]([O-])CC1 [Example FU, 4-{6-[(Pyrazin-2-yl)({5-[5-(trifluoromethyl)-1,2,4-oxadiazol-3-yl]thiophen-2-yl}methyl)amino]pyridazine-4-carbonyl}-1lambda4-thiomorpholin-1-one]
EC50 [1]: ≥ 10 µM | IC50 (Human HDAC9): ≤ 10000 nM | EC50 [2]: ≤ 1 µM | IC50 (Human HDAC7): ≤ 10000 nM

[O-][S+]1CCN(Cc2ccc(N(Cc3ccc(-c4noc(C(F)(F)F)n4)s3)c3cnccn3)nn2)CC1 [Example FO, 4-({6-[(Pyrazin-2-yl)({5-[5-(trifluoromethyl)-1,2,4-oxadiazol-3-yl]thiophen-2-yl}methyl)amino]pyridazin-3-yl}methyl)-1lambda4-thiomorpholin-1-one]
EC50 [1]: ≥ 10 µM | IC50 (Human HDAC9): ≤ 10000 nM | EC50 [2]: ≤ 1 µM | IC50 (Human HDAC7): ≤ 1000 nM

O=C(c1ccc(N(Cc2ccc(-c3noc(C(F)(F)F)n3)s2)c2cnccn2)nn1)N1CCC1 [Example FF, 6-(Azetidine-1-carbonyl)-N-(pyrazin-2-yl)-N-({5-[5-(trifluoromethyl)-1,2,4-oxadiazol-3-yl]thiophen-2-yl}methyl)pyridazin-3-amine]
EC50 [1]: ≥ 10 µM | IC50 (Human HDAC9): ≤ 1000 nM | EC50 [2]: ≤ 1 µM | IC50 (Human HDAC7): ≤ 500 nM

N#Cc1cnnc(N(Cc2ccc(-c3noc(C(F)(F)F)n3)s2)c2cnccn2)c1 [Example EE, 6-[(Pyrazin-2-yl)({5-[5-(trifluoromethyl)-1,2,4-oxadiazol-3-yl]thiophen-2-yl}methyl)amino]pyridazine-4-carbonitrile]
EC50 [1]: ≥ 10 µM | IC50 (Human HDAC9): ≤ 10000 nM | EC50 [2]: ≤ 1 µM | IC50 (Human HDAC7): ≤ 10000 nM

O=C(c1cnnc(N(Cc2ccc(-c3noc(C(F)(F)F)n3)s2)c2cnccn2)c1)N1C[C@H]2C[C@@H]1CO2 [Example FW, 5-[(1R,4R)-2-Oxa-5-azabicyclo[2.2.1]heptane-5-carbonyl]-N-(pyrazin-2-yl)-N-({5-[5-(trifluoromethyl)-1,2,4-oxadiazol-3-yl]thiophen-2-yl}methyl)pyridazin-3-amine]
EC50 [1]: ≥ 10 µM | IC50 (Human HDAC9): ≤ 10000 nM | EC50 [2]: ≤ 1 µM | IC50 (Human HDAC7): ≤ 10000 nM

O=C(c1ccc(N(Cc2ccc(-c3noc(C(F)(F)F)n3)s2)c2cnccn2)nn1)N1CCC2(COC2)C1 [Example FJ, 6-{2-Oxa-6-azaspiro[3.4]octane-6-carbonyl}-N-(pyrazin-2-yl)-N-({5-[5-(trifluoromethyl)-1,2,4-oxadiazol-3-yl]thiophen-2-yl}methyl)pyridazin-3-amine]
EC50 [1]: ≥ 10 µM | IC50 (Human HDAC9): ≤ 1000 nM | EC50 [2]: ≤ 1 µM | IC50 (Human HDAC7): ≤ 500 nM

FC(F)(F)c1cnnc(N(Cc2ccc(-c3noc(C(F)(F)F)n3)s2)c2cc(C(F)(F)F)cnn2)c1 [Example EU, 5-(Trifluoromethyl)-N-({5-[5-(trifluoromethyl)-1,2,4-oxadiazol-3-yl]thiophen-2-yl}methyl)-N-[5-(trifluoromethyl)pyridazin-3-yl]pyridazin-3-amine]
EC50 [1]: ≥ 10 µM | IC50 (Human HDAC9): > 10000 nM | EC50 [2]: ≤ 1 µM | IC50 (Human HDAC7): ≤ 10000 nM

O=C(c1cnnc(N(Cc2ccc(-c3noc(C(F)(F)F)n3)s2)c2cnccn2)c1)N1CCC12COC2 [Example GF, 5-{6-Oxa-1-azaspiro[3.3]heptane-1-carbonyl}-N-(pyrazin-2-yl)-N-({5-[5-(trifluoromethyl)-1,2,4-oxadiazol-3-yl]thiophen-2-yl}methyl)pyridazin-3-amine]
EC50 [1]: ≥ 10 µM | IC50 (Human HDAC9): ≤ 10000 nM | EC50 [2]: ≤ 1 µM | IC50 (Human HDAC7): ≤ 10000 nM

FC(F)(F)c1cnnc(N(Cc2ccc(-c3noc(C(F)(F)F)n3)s2)c2cccnn2)c1 [Example ER, N-(Pyridazin-3-yl)-5-(trifluoromethyl)-N-({5-[5-(trifluoromethyl)-1,2,4-oxadiazol-3-yl]thiophen-2-yl}methyl)pyridazin-3-amine]
EC50 [1]: ≥ 10 µM | IC50 (Human HDAC9): ≤ 10000 nM | EC50 [2]: ≥ 10 µM | IC50 (Human HDAC7): ≤ 10000 nM

O=C(c1ccc(N(Cc2ccc(-c3noc(C(F)(F)F)n3)s2)c2cnccn2)nn1)N1CCOCC1 [Example DS, 6-(Morpholine-4-carbonyl)-N-(pyrazin-2-yl)-N-({5-[5-(trifluoromethyl)-1,2,4-oxadiazol-3-yl]thiophen-2-yl}methyl)pyridazin-3-amine]
EC50 [1]: ≥ 10 µM | IC50 (Human HDAC9): ≤ 1000 nM | EC50 [2]: ≤ 1 µM | IC50 (Human HDAC7): ≤ 500 nM

CNC(=O)c1cnnc(N(Cc2ccc(-c3noc(C(F)(F)F)n3)s2)c2cnccn2)c1 [Example DY, N-Methyl-6-[(pyrazin-2-yl)({5-[5-(trifluoromethyl)-1,2,4-oxadiazol-3-yl]thiophen-2-yl}methyl)amino]pyridazine-4-carboxamide]
EC50 [1]: ≥ 10 µM | IC50 (Human HDAC9): ≤ 10000 nM | EC50 [2]: ≤ 1 µM | IC50 (Human HDAC7): ≤ 500 nM

O=C(c1ccc(N(Cc2ccc(-c3noc(C(F)(F)F)n3)s2)c2cnccn2)nn1)N1CCC12COC2 [Example FH, 6-{6-Oxa-1-azaspiro[3.3]heptane-1-carbonyl}-N-(pyrazin-2-yl)-N-({5-[5-(trifluoromethyl)-1,2,4-oxadiazol-3-yl]thiophen-2-yl}methyl)pyridazin-3-amine]
EC50 [1]: ≥ 10 µM | IC50 (Human HDAC9): ≤ 1000 nM | EC50 [2]: ≤ 1 µM | IC50 (Human HDAC7): ≤ 500 nM

NC(=O)c1cnnc(N(Cc2ccc(-c3noc(C(F)(F)F)n3)s2)c2cnccn2)c1 [Example DX, 6-[(Pyrazin-2-yl)({5-[5-(trifluoromethyl)-1,2,4-oxadiazol-3-yl]thiophen-2-yl}methyl)amino]pyridazine-4-carboxamide]
EC50 [1]: ≥ 10 µM | IC50 (Human HDAC9): ≤ 10000 nM | EC50 [2]: ≤ 1 µM | IC50 (Human HDAC7): ≤ 500 nM

COC1CN(C(=O)c2cnnc(N(Cc3ccc(-c4noc(C(F)(F)F)n4)s3)c3cnccn3)c2)C1 [Example DZ, 5-(3-Methoxyazetidine-1-carbonyl)-N-(pyrazin-2-yl)-N-({5-[5-(trifluoromethyl)-1,2,4-oxadiazol-3-yl]thiophen-2-yl}methyl)pyridazin-3-amine]
EC50 [1]: ≥ 10 µM | IC50 (Human HDAC9): ≤ 10000 nM | EC50 [2]: ≤ 1 µM | IC50 (Human HDAC7): ≤ 1000 nM
